Laboratory results reported in US7642063B2, “Methods for targeting and killing glioma cells” (Auburn University, priority 2004, dated 2010).

What was measured:
normal rat astrocytes = test: Cytotoxicity by MTT assay on normal astrocytes; assay type: cell-based; settings: 10 or 100 uM, 48 hours incubation
Experimental: (§1) Using glioma-selective sequences from the second family shown in FIG. 4 (and in FIG. 5(a)), a fusion molecule containing the same identical cell-targeting peptide coupled to a cell-killing peptide was designed and synthesized. Glioma cells (malignant cells originating from astrocytes) and normal astrocytes were treated with increasing concentrations (10 or 100 uM) of cytotoxic peptide alone, or cytotoxic peptide linked to the targeting peptide, i.e. the peptide drug, and cytotoxicity was evaluated by MTT assay (this assay measures cell viability).
(§2) FIG. 5(b) further illustrates the cytotoxic effect of d(KLAKLAK)2(SEQ ID NO:4) and DSTK-GG-d(KLAKLAK)2(SEQ ID NO:5) peptides on the glioma cells and the normal astrocytes. RG2 glioma cells and normal rat astrocytes were plated in quadruplicate in 96-well plates for 24 hours. Increasing concentrations (10 or 100 uM) of cytotoxic peptide alone, d(KLAKLAK)2(SEQ ID NO:4), or cytotoxic peptide linked to targeting peptide, DSTK-GG-d(KLAKLAK)2(SEQ ID NO:5), were added to the cells for 48 hours incubation. Cytotoxicity of therapeutic peptides were evaluated by MTT assay.

RG2 glioma cells [1] = test: Cytotoxicity by MTT assay on glioma cells; assay type: cell-based, rat; settings: 10 or 100 uM, 48 hours incubation
Experimental: as §1, §2

RG2 glioma cells [2] = test: Detection of internalized phage particles by immunofluorescence microscopy (saponin+/saponin−); assay type: cell-based, rat; settings: saponin-treated vs untreated RG2 cells
Experimental: FIG. 5(a) illustrates the detection of internalized phage particles by immunofluorescence microscopy. RG2 glioma cells were grown on chamber slides and incubated with DSTKSGNM (SEQ ID NO:3) phage. In cells treated with saponin (saponin+) to permeabilize cell membranes, both internalized and extracellular bound phage particles were accessible for staining. Without saponin treatment (saponin−), FIG. 5(a) illustrates that only extracellular phage were available for detection. These slides were then processed for immunofluorescence microscopy with antibody against filed phage, followed by a fluorescein-conjugated secondary antibody to visualize phage particles.

Molecule | effect on normal astrocytes (MTT, cell viability) (normal rat astrocytes) | cytotoxic effect on glioma cells (MTT, cell viability) (RG2 glioma cells [1]) | internalization of phage by cells (RG2 glioma cells [2])
CC(C)C[C@@H](NC(=O)[C@H](N)CCCCN)C(=O)N[C@H](C)C(=O)N[C@H](CCCCN)C(=O)N[C@H](CC(C)C)C(=O)N[C@H](C)C(=O)N[C@H](CCCCN)C(=O)N[C@H](CCCCN)C(=O)N[C@H](CC(C)C)C(=O)N[C@H](C)C(=O)N[C@H](CCCCN)C(=O)N[C@H](CC(C)C)C(=O)N[C@H](C)C(=O)N[C@H](CCCCN)C(=O)O [cytotoxic peptide alone, d(KLAKLAK)2, reference compound] | None of the peptides, with or without targeting, demonstrated any effect | no effect | 
CC(C)C[C@@H](NC(=O)[C@@H](CCCCN)NC(=O)CNC(=O)CNC(=O)[C@H](CCCCN)NC(=O)[C@@H](NC(=O)[C@H](CO)NC(=O)[C@@H](N)CC(=O)O)[C@@H](C)O)C(=O)N[C@H](C)C(=O)N[C@H](CCCCN)C(=O)N[C@H](CC(C)C)C(=O)N[C@H](C)C(=O)N[C@H](CCCCN)C(=O)N[C@H](CCCCN)C(=O)N[C@H](CC(C)C)C(=O)N[C@H](C)C(=O)N[C@H](CCCCN)C(=O)N[C@H](CC(C)C)C(=O)N[C@H](C)C(=O)N[C@H](CCCCN)C(=O)O [peptide drug, DSTK-GG-d(KLAKLAK)2] | None of the peptides, with or without targeting, demonstrated any effect | clear cytotoxic effect | 
DSTKSGNM [DSTKSGNM phage] |  |  | internalized
